For 47 compounds, IC50 results are on record in patent US20240228482A1, “COMPOUNDS, COMPOSITIONS AND METHODS OF TREATING CANCER” (HOTSPOT THERAPEUTICS, INC., priority 2021, published 2024).

By IC50 is commonly meant the concentration at which inhibition is half-maximal.

Bounds are passed on as bounds.

The target in the assay is T1, CBL-B (Homo sapiens, UniProt Q13191).
T1 construct: GST
As to the kind of experiment: CBL-B TR-FRET IC50 screening (E1/E2 ubiquitination, Biotin-Ubiquitin, Anti GST-Tb donor / Streptavidin-d2 acceptor). It is filed as biochemical. As to conditions: CBL-B 10 nM final; 11-point titration from 100 uM; binned A-F; read-out: CBL-B TR-FRET activity IC50. (In TR-FRET formats the signal depends on donor and acceptor labels being close together.)

T1 sequence (Q13191 whole entry): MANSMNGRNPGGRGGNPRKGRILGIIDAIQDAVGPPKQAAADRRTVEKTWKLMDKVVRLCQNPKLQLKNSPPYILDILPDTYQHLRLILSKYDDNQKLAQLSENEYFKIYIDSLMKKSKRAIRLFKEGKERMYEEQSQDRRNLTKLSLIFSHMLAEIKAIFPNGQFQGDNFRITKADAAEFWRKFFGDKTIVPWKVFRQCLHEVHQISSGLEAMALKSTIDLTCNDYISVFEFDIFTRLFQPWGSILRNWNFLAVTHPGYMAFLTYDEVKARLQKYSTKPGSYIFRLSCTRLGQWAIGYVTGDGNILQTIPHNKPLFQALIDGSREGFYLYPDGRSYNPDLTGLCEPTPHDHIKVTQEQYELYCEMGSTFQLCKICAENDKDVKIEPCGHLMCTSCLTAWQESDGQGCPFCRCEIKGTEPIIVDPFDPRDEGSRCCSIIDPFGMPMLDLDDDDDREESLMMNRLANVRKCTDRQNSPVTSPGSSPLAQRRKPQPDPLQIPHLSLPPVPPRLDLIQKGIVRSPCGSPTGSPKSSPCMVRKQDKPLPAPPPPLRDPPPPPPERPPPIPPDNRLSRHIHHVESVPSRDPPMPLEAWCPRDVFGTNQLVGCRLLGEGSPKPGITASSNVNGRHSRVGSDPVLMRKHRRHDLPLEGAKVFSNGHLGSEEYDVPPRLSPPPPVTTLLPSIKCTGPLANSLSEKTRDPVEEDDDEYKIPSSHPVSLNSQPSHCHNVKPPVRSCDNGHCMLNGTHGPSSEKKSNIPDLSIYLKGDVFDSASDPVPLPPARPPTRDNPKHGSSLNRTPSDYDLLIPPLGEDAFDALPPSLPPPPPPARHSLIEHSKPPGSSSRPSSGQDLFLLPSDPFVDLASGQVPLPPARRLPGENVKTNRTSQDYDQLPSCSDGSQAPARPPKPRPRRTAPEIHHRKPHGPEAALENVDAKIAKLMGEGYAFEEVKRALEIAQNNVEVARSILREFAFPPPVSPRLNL

Turning to `Cn1cnnc1C[C@H]1CCc2c1cccc2-n1cc2c(C(F)(F)F)cccn2c1=O` (single isomer, unassigned) [Compound 16], the IC50 was > 10000 nM.

With `C[C@@H](c1cc(C(F)(F)F)c2cn(-c3cccc(C4(Cc5nncn5C)COC4)c3)c(=O)n2c1)N1CC2CC2C1` (single isomer, unassigned) [Compound 32], the IC50 was < 100 nM.

As for `Cn1cnnc1[C@H](F)C1(c2cccc(-n3cc4c(C(F)(F)F)cc(CN5CCC(F)CC5)cn4c3=O)c2)COC1` (single isomer, unassigned) [Compound 45], the IC50 is < 100 nM.

For `C[C@H]1CCCN(Cc2cc(C(F)(F)F)c3cn(-c4cccc([C@]5(c6nncn6C)C[C@@H](C)C5)c4)c(=O)n3c2)C1` (single isomer, unassigned) [Compound 59], the IC50 was < 100 nM.

With `C[C@H]1CCCN(Cc2cc(C(F)(F)F)c3cn(-c4cccc([C@]5(c6nncn6C)C[C@@H](C)C5)c4)c(=O)n3c2)C1` (single isomer, unassigned) [Compound 60], the concentration for half-maximal inhibition (IC50) was < 100 nM.

Regarding `Cn1cnnc1CC1(c2cccc(-n3cc4c(Cl)cc(CN5CCC6(CC6)C5)cn4c3=O)c2)COC1` (single isomer, unassigned) [Compound 67], the IC50 is < 100 nM.

As for `C=C(C)C[C@@H](c1cccc(-n2cc3c(C(F)(F)F)cc(CN4CCC[C@H](C)C4)cn3c2=O)c1)c1nncn1C` (single isomer, unassigned) [Compound 68], the IC50 is < 100 nM.

Regarding `Cn1cnnc1CC1(c2cccc(-n3cc4c(C(F)(F)F)cc(CO)cn4c3=O)c2)COC1` (single isomer, unassigned) [Compound 81], the IC50 was in the range of 301 to 1000 nM.

Take `CN1CCC(c2cc(C(F)(F)F)c3cn(-c4cccc(C5(Cc6nncn6C)COC5)c4)c(=O)n3c2)CC1` (single isomer, unassigned) [Compound 82]: the IC50 was < 100 nM.

For `CC(c1cc(C(F)(F)F)c2cn(-c3cccc(C4(Cc5nncn5C(F)F)COC4)c3)c(=O)n2c1)N1CCC(F)CC1` (single isomer, unassigned) [Compound 96], the IC50 was < 100 nM.

For `CC(c1cc(C(F)(F)F)c2cn(-c3cccc(C4(Cc5nncn5C(F)F)COC4)c3)c(=O)n2c1)N1CCC(F)CC1` (single isomer, unassigned) [Compound 97], the IC50 was < 100 nM.

Turning to `CC1CN(Cc2cc(C(F)(F)F)c3cn(-c4cccc([C@]5(Cc6nncn6C)C[C@@H](C#N)C5)c4)c(=O)n3c2)CCC1(F)F` (single isomer, unassigned) [Compound 99], the IC50 is < 100 nM.

Regarding `CC1CN(Cc2cc(C(F)(F)F)c3cn(-c4cccc([C@]5(Cc6nncn6C)C[C@@H](C#N)C5)c4)c(=O)n3c2)CCC1(F)F` (single isomer, unassigned) [Compound 100], the IC50 was < 100 nM.

In the case of `CC(c1cc(C(F)(F)F)c2cn(-c3cccc(C4(Cc5nncn5C)COC4)c3)c(=O)n2c1)N1CCC[C@H](C)C1` (single isomer, unassigned) [Compound 119], the IC50 is < 100 nM.

In the case of `CC(c1cc(C(F)(F)F)c2cn(-c3cccc(C4(Cc5nncn5C)COC4)c3)c(=O)n2c1)N1CCC[C@H](C)C1` (single isomer, unassigned) [Compound 120], the half-inhibitory concentration (IC50) is < 100 nM.

As to `C[C@H]1CCCN(Cc2cc(C(F)(F)F)c3cn(-c4cccc([C@@H](c5nncn5C)C5COC5)c4)c(=O)n3c2)C1` (single isomer, unassigned) [Compound 134], the IC50 was in the range of 301 to 1000 nM.

Take `[2H]C([2H])([2H])n1cnnc1[C@@H](c1cccc(-n2cc3c(C(F)(F)F)cc(CN4CCC[C@H](C)C4)cn3c2=O)c1)C1CCC1` (single isomer, unassigned) [Compound 135]: the IC50 is < 100 nM.

In the case of `[2H]C([2H])([2H])n1cnnc1[C@H](c1cccc(-n2cc3c(C(F)(F)F)cc(CN4CCC[C@H](C)C4)cn3c2=O)c1)C1CCC1` (single isomer, unassigned) [Compound 136], the IC50 is 301 to 1000 nM.

As to `[2H]C([2H])([2H])n1cnnc1[C@@H](c1cccc(-n2cc3c(C(F)(F)F)cc(CN4CCO[C@H](C)C4)cn3c2=O)c1)C1CCC1` (single isomer, unassigned) [Compound 137], the IC50 is < 100 nM.

`[2H]C([2H])([2H])n1cnnc1[C@H](c1cccc(-n2cc3c(C(F)(F)F)cc(CN4CCO[C@H](C)C4)cn3c2=O)c1)C1CCC1` (single isomer, unassigned) [Compound 138]: the IC50 was 1000 to 3000 nM.

For `CC1CC(c2cccc(-n3cc4c(C(F)(F)F)cc(Br)cn4c3=O)c2)(c2nncn2C)C1` (single isomer, unassigned) [Compound 150], the 50% inhibitory concentration (IC50) was < 100 nM.

Turning to `CC(C)C[C@H](c1cccc(-n2cc3c(C(F)(F)F)cc(CN4CCC[C@H](C)C4)cn3c2=O)c1)c1nncn1C` (single isomer, unassigned) [Compound 151], the half-maximal inhibitory concentration (IC50) lay in the range of 301 to 1000 nM.

For the compound `CC(C)C[C@@H](c1cccc(-n2cc3c(C(F)(F)F)cc(CN4CCC[C@H](C)C4)cn3c2=O)c1)c1nncn1C` (single isomer, unassigned) [Compound 152], the IC50 is > 10000 nM.

On to `CC1CC(c2cccc(-n3cc4c(C(F)(F)F)cc(Br)cn4c3=O)c2)(c2nncn2C)C1` (single isomer, unassigned) [Compound 154], for which the IC50 is < 100 nM.

As for `CC(c1cc(C(F)(F)F)c2cn(-c3cccc(C4(Cc5nncn5C)COC4)c3)c(=O)n2c1)N1CCO[C@H](C)C1` (single isomer, unassigned) [Compound 156], the half-inhibitory concentration (IC50) was < 100 nM.

With `CC(c1cc(C(F)(F)F)c2cn(-c3cccc(C4(Cc5nncn5C)COC4)c3)c(=O)n2c1)N1CCO[C@H](C)C1` (single isomer, unassigned) [Compound 157], the IC50 is < 100 nM.

On to `Cn1cnnc1[C@@H](c1cccc(-n2cc3c(C(F)(F)F)cc(CN4CC[C@H](F)C4)cn3c2=O)c1)C1CCC1` (single isomer, unassigned) [Compound 159], for which the IC50 was < 100 nM.

As for `Cn1cnnc1[C@@H](c1cccc(-n2cc3c(C(F)(F)F)cc(CN4CCC(C)(F)CC4)cn3c2=O)c1)C1CCC1` (single isomer, unassigned) [Compound 161], the IC50 was < 100 nM.

For `Cn1cnnc1[C@H](c1cccc(-n2cc3c(C(F)(F)F)cc(CN4CCC5(CC5)C4)cn3c2=O)c1)C1CCC1` (single isomer, unassigned) [Compound 162], the IC50 lay in the range of 1000 to 3000 nM.

For the compound `Cn1cnnc1[C@@H](c1cccc(-n2cc3c(C(F)(F)F)cc(CN4CCC5(CC5)C4)cn3c2=O)c1)C1CCC1` (single isomer, unassigned) [Compound 163], the IC50 was < 100 nM.

For the compound `Cn1cnnc1[C@H](c1cccc(-n2cc3c(C(F)(F)F)cc(CN4CC5(CC5)C4)cn3c2=O)c1)C1CCC1` (single isomer, unassigned) [Compound 164], the IC50 was in the range of 3000 to 10000 nM.

Turning to `Cn1cnnc1[C@@H](c1cccc(-n2cc3c(C(F)(F)F)cc(CN4CC5(CC5)C4)cn3c2=O)c1)C1CCC1` (single isomer, unassigned) [Compound 165], the IC50 is < 100 nM.

In the case of `CC1CN(Cc2cc(C(F)(F)F)c3cn(-c4cccc([C@@H](c5nncn5C)C5CCC5)c4)c(=O)n3c2)CCC1(F)F` (single isomer, unassigned) [Compound 169], the IC50 lay in the range of 3000 to 10000 nM.

As for `CC1CN(Cc2cc(C(F)(F)F)c3cn(-c4cccc([C@@H](c5nncn5C)C5CCC5)c4)c(=O)n3c2)CCC1(F)F` (single isomer, unassigned) [Compound 170], the IC50 lay within 1000 to 3000 nM.

With `CC1CN(Cc2cc(C(F)(F)F)c3cn(-c4cccc([C@H](c5nncn5C)C5CCC5)c4)c(=O)n3c2)CCC1(F)F` (single isomer, unassigned) [Compound 171], the IC50 was < 100 nM.

Consider `CC1CN(Cc2cc(C(F)(F)F)c3cn(-c4cccc([C@H](c5nncn5C)C5CCC5)c4)c(=O)n3c2)CCC1(F)F` (single isomer, unassigned) [Compound 172], for which the IC50 is < 100 nM.

As to `Cn1cnnc1[C@H](c1cccc(-n2cc3c(C(F)(F)F)cc(CN4CC[C@H](C#N)C4)cn3c2=O)c1)C1CCC1` (single isomer, unassigned) [Compound 173], the IC50 was 3000 to 10000 nM.

`Cn1cnnc1[C@@H](c1cccc(-n2cc3c(C(F)(F)F)cc(CN4CC[C@H](C#N)C4)cn3c2=O)c1)C1CCC1` (single isomer, unassigned) [Compound 174]: the IC50 is < 100 nM.

On to `Cn1cnnc1CC1(c2cccc(-n3cc4c(C(F)(F)F)cc(CN5CCCC(O)CC5)cn4c3=O)c2)COC1` (single isomer, unassigned) [Compound 176], for which the IC50 is < 100 nM.

`Cn1cnnc1CC1(c2cccc(-n3cc4c(C(F)(F)F)cc(CN5CCCC(O)CC5)cn4c3=O)c2)COC1` (single isomer, unassigned) [Compound 177]: the half-maximal inhibitory concentration (IC50) is < 100 nM.

As to `CN1CCCCC1c1cc(C(F)(F)F)c2cn(-c3cccc(C4(Cc5nncn5C)COC4)c3)c(=O)n2c1` (single isomer, unassigned) [Compound 186], the IC50 was 100 to 300 nM.

In the case of `CN1CCCCC1c1cc(C(F)(F)F)c2cn(-c3cccc(C4(Cc5nncn5C)COC4)c3)c(=O)n2c1` (single isomer, unassigned) [Compound 187], the IC50 lay in the range of 100 to 300 nM.

In the case of `[2H]C([2H])([2H])n1cnnc1C1(c2cccc(-n3cc4c(C(F)(F)F)cc(CN5CCC[C@H](C)C5)cn4c3=O)c2)CC(C)C1` (single isomer, unassigned) [Compound 189], the IC50 is < 100 nM.

Take `CC1CC(c2cccc(-n3cc4c(C(F)(F)F)cc(CN5CCO[C@H](C)C5)cn4c3=O)c2)(c2nncn2C)C1` (single isomer, unassigned) [Compound 190]: the half-maximal inhibitory concentration (IC50) was < 100 nM.

As for `CC(c1cc(C(F)(F)F)c2cn(-c3cccc([C@@H](c4nncn4C)C4CCC4)c3)c(=O)n2c1)N1CCC[C@H](C)C1` (single isomer, unassigned) [Compound 191], the IC50 was in the range of 301 to 1000 nM.

Turning to `CC(c1cc(C(F)(F)F)c2cn(-c3cccc([C@@H](c4nncn4C)C4CCC4)c3)c(=O)n2c1)N1CCC[C@H](C)C1` (single isomer, unassigned) [Compound 192], the IC50 is < 100 nM.

Regarding `CC(c1cc(C(F)(F)F)c2cn(-c3cccc([C@H](c4nncn4C)C4CCC4)c3)c(=O)n2c1)N1CCC[C@H](C)C1` (single isomer, unassigned) [Compound 193], the IC50 was < 100 nM.
